According to the NIST ThermoML archive (doi:10.1016/j.jct.2014.04.016):
± gives the expanded uncertainty stated by the source.

Settings: for electrical conductivity / viscosity / mass density: 101.33 kPa, Liquid; for electrical conductivity: Alternating current cell with electrodes; for viscosity: Concentric cylinders viscometry; for mass density: Vibrating tube method

CCCCCCCCOS(=O)(=O)[O-].CCn1cc[n+](C)c1 [1-ethyl-3-methylimidazolium octyl sulfate]
Settings | electrical conductivity [S/m] | mass density [kg/m3] | viscosity [mPa·s]
258.1 K | 0.002 ± 0.003 | – | –
263.1 K | 0.003 ± 0.003 | – | –
268.1 K | 0.005 ± 0.003 | – | –
273.1 K | 0.008 ± 0.003 | 1110.8 ± 1.1 | 4561 ± 290
278.1 K | 0.012 ± 0.003 | 1107.4 ± 1.1 | 2822 ± 160
283.1 K | 0.017 ± 0.003 | 1103.9 ± 1.1 | 1815 ± 94
288.1 K | 0.025 ± 0.003 | 1100.5 ± 1.1 | 1207 ± 57
293.1 K | 0.034 ± 0.003 | 1097.1 ± 1.1 | 826.7 ± 36
298.1 K | 0.046 ± 0.003 | 1093.7 ± 1.1 | 581 ± 23
303.1 K | 0.06 ± 0.003 | 1090.2 ± 1.1 | 421.7 ± 15
308.1 K | 0.078 ± 0.003 | 1086.9 ± 1 | 311.7 ± 10
313.1 K | 0.098 ± 0.003 | 1083.6 ± 1 | 233.3 ± 7.1
318.1 K | 0.124 ± 0.003 | 1080.3 ± 1 | 179.1 ± 5
323.1 K | 0.153 ± 0.004 | 1077.1 ± 1 | 139.8 ± 3.7
328.1 K | 0.193 ± 0.004 | 1073.9 ± 1 | 110.9 ± 2.7
333.1 K | 0.232 ± 0.005 | 1070.7 ± 1 | 89.14 ± 2.1
338.1 K | 0.279 ± 0.006 | 1067.5 ± 1 | 72.56 ± 1.6
343.1 K | 0.329 ± 0.007 | 1064.4 ± 1 | 59.81 ± 1.3
348.1 K | 0.385 ± 0.008 | 1061.2 ± 1 | 49.83 ± 1.1
353.1 K | 0.447 ± 0.009 | 1058.1 ± 1 | 41.94 ± 0.92
358.1 K | 0.514 ± 0.011 | 1054.9 ± 1 | 35.63 ± 0.78
363.1 K | 0.584 ± 0.012 | 1051.8 ± 1 | 30.53 ± 0.66
368.1 K | 0.661 ± 0.014 | 1048.8 ± 1 | 26.36 ± 0.57
373.1 K | 0.731 ± 0.015 | 1045.7 ± 1 | 22.92 ± 0.5

Settings | Normal melting temperature [°C]
Crystal, visual observation | 10 ± 4
